In publication PMC10042540, “Targeting oncogenic KRasG13C with nucleotide-based covalent inhibitors” (eLife, 2023):

Legend:
[1] = tested on: Ras pathway (pcRaf, pAkt, pErk, pS6); test: Electroporation into HeLa cells, western blot of downstream signalling; format: cell-based, human; details: electroporation of 50-300 µg protein
Experimental: (§1) HeLa cells were obtained from the American Type Culture Collection (ATCC) and were cultured in DMEM medium (Gibco) supplemented with 10% fetal bovine serum (FBS) (PAN-Biotech) and 1% penicillin/streptomycin (Gibco). Cells were cultured in a humidified incubator at 37 °C in the presence of 5% CO2. The identity of the cells was validated by STR profiling and the cells were tested negative for mycoplasma contamination.
(§2) Electroporation of full-length KRas constructs (KRasWT, KRasG13C, KRasG13C-edaGDP, KRasG13C:acetyledaGDP and KRasG13C-edaGppCp) was performed based on the protocol described by [Alex et al., 2019] using the Neon Transfection System Kit (Thermo Fisher). For electroporation, 3 million cells per experiment were harvested by trypsinization, washed with PBS, and resuspended in 85 µL of the electroporation buffer R (Thermo Fisher). Increasing amounts of recombinant protein samples for each construct (0, 50, 100, 200 and 300 µg) were diluted 1:1 in buffer R followed by the addition of 30 µL of this protein master mix to the cell suspension. This cellular slurry was loaded into a […] Neon Pipette Tip (Thermo Fisher) and electroporated with 2x35 ms pulses at 1000 V. After electroporation, the cells were washed twice with PBS (15 mL) to remove non-internalized extracellular protein and the cell pellet was resuspended in 2 mL complete growth media. Cells were transferred into six-well tissue culture plates (Sarstedt) and incubated for 24 hr at 37 °C and 5% CO2 in a humidified incubator for recovery before being processed for western blotting analysis.
After recovery of the electroporation, cells were washed twice with ice-cold PBS and lysed in 100 µL of phosphatase and protease inhibitor containing RIPA buffer (Cell Signaling Technology). Cells were incubated on ice for 30 min and then harvested by scraping followed by centrifugation at 14,000 rpm for 10 min at 4 °C. Protein concentrations were determined using the Pierce BCA protein assay (Thermo) following the manufacturer’s recommended procedure. Equal amounts of protein (10 µg) were analyzed by SDS-PAGE and transferred to Immobilon-FL PVDF membranes (Merck Millipore) using Pierce 1-step transfer buffer (Thermo) and the Pierce Power Blotter (Thermo). Membranes were washed with ddH2O for 5 min, blocked with OdysseyBlocking Buffer TBS (Li-Cor) for 1 hr at room temperature and then incubated with primary antibodies diluted in OdysseyBlocking Buffer TBS overnight at 4 °C with gentle agitation. […] Quantification of protein levels from western blots was performed using Empiria Studio (Li-Cor) (Figure 3B, C, Figure 3—figure supplements 6–9).

[2] = tested on: tErk; test: Electroporation into HeLa cells, western blot quantification; format: cell-based, human; details: for tErk mean fold change: mean of cell lysates
Experimental: as §1, §2
(§3) After recovery of the electroporation, cells were washed twice with ice-cold PBS and lysed in 100 µL of phosphatase and protease inhibitor containing RIPA buffer (Cell Signaling Technology). Cells were incubated on ice for 30 min and then harvested by scraping followed by centrifugation at 14,000 rpm for 10 min at 4 °C. Protein concentrations were determined using the Pierce BCA protein assay (Thermo) following the manufacturer’s recommended procedure. Equal amounts of protein (10 µg) were analyzed by SDS-PAGE and transferred to Immobilon-FL PVDF membranes (Merck Millipore) using Pierce 1-step transfer buffer (Thermo) and the Pierce Power Blotter (Thermo). Membranes were washed with ddH2O for 5 min, blocked with OdysseyBlocking Buffer TBS (Li-Cor) for 1 hr at room temperature and then incubated with primary antibodies diluted in OdysseyBlocking Buffer TBS overnight at 4 °C with gentle agitation. KRas (Sigma Aldrich, SAB1404011-100UG), pcRafS338 (CST, 9427), tAkt1 (CST, 2938), pAktS473 (CST, 4060), tErk (CST, 4696), pErkT202/Y204 (CST, 4370), pS6S235/236 (CST, 4858), and β-actin (CST, 4970/Sigma-Aldrich, A5441) antibodies were used to detect the individual proteins. After primary antibody incubation, membranes were washed three times with TBS-T (50 mM Tris, 150 mM NaCl, 0.05% Tween 20, pH 7.4) for 5 min before being incubated with secondary antibodies (anti-mouse IgG (H+L) (DyLight 680 Conjugate) (CST, 5470) / anti-rabbit IgG (H+L) (DyLight 800 4 X PEG Conjugate) (CST, 5151)) diluted in OdysseyBlocking Buffer TBS for 1 hr at room temperature with gentle agitation. After secondary antibody incubation, the membranes were washed three times for 5 min with TBS-T and then scanned using an OdysseyCLx imaging system (Li-Cor). Quantification of protein levels from western blots was performed using Empiria Studio (Li-Cor) (Figure 3B, C, Figure 3—figure supplements 6–9).

[3] = tested on: tAkt1; test: as above; format: cell-based, human; details: for tAkt mean fold change: mean of cell lysates
Experimental: as §1, §2, §3

[4] = tested on: pAktS473; test: as above; format: cell-based, human; details: for pAkt mean fold change: mean of cell lysates
Experimental: as §1, §2, §3

[5] = tested on: pErkT202/Y204; test: as above; format: cell-based, human; details: for pErk mean fold change: mean of cell lysates
Experimental: as §1, §2, §3

[6] = tested on: pcRafS338; test: as above; format: cell-based, human; details: for pcRaf mean fold change: mean of cell lysates
Experimental: as §1, §2, §3

[7] = tested on: pS6S235/236; test: as above; format: cell-based, human; details: for pS6 mean fold change: mean of cell lysates
Experimental: as §1, §2, §3

[8] = tested on: SOS; test: Guanine nucleotide-exchange factor assay (mantdGDP fluorescence); format: biochemical; details: 5 µM KRas1-169, 10 µM mantdGDP, 0.25 or 0.5 µM SOS
Experimental: SOS-catalysed nucleotide exchange was monitored at 25 °C in a FluoroMax-3 spectrofluorometer (excitation at 360 nm, emission at 440 nm) in 20 mM HEPES (pH 7.5), 100 mM NaCl, 2 mM MgCl2, and 1 mM TCEP. 5 µM KRas1-169 was mixed with 10 µM mantdGDP and subsequently with different concentrations of SOS (0.25 µM and 0.5 µM) (Figure 3A; Figure 3—figure supplement 1).

## KRasG13C-edaGppCp: KRasG13C covalently modified with edaGppCp
[1]
  downstream signalling (pcRaf, pAkt, pErk, pS6): activation of the Ras pathway comparable to KRasG13C was observed
[2]; 50 µg, Cell lysate 1
  tErk fold change: 1.12
[2]; 50 µg, Cell lysate 2
  tErk fold change: 1.11
[2]; 50 µg
  tErk mean fold change: 1.12
[2]; 100 µg, Cell lysate 1
  tErk fold change: 1.29
[2]; 100 µg, Cell lysate 2
  tErk fold change: 1.14
[2]; 100 µg
  tErk mean fold change: 1.21
[2]; 200 µg, Cell lysate 1
  tErk fold change: 1.21
[2]; 200 µg, Cell lysate 2
  tErk fold change: 1.17
[2]; 200 µg
  tErk mean fold change: 1.19
[2]; 300 µg, Cell lysate 1
  tErk fold change: 1.69
[2]; 300 µg, Cell lysate 2
  tErk fold change: 1.50
[2]; 300 µg
  tErk mean fold change: 1.60
[3]; 50 µg, Cell lysate 1
  tAkt fold change: 1.35
[3]; 50 µg, Cell lysate 2
  tAkt fold change: 1.53
[3]; 50 µg
  tAkt mean fold change: 1.44
[3]; 100 µg, Cell lysate 1
  tAkt fold change: 1.30
[3]; 100 µg, Cell lysate 2
  tAkt fold change: 1.69
[3]; 100 µg
  tAkt mean fold change: 1.50
[3]; 200 µg, Cell lysate 1
  tAkt fold change: 1.09
[3]; 200 µg, Cell lysate 2
  tAkt fold change: 1.67
[3]; 200 µg
  tAkt mean fold change: 1.38
[3]; 300 µg, Cell lysate 1
  tAkt fold change: 0.94
[3]; 300 µg, Cell lysate 2
  tAkt fold change: 1.47
[3]; 300 µg
  tAkt mean fold change: 1.20
[4]; 50 µg, Cell lysate 1
  pAkt fold change: 2.11
[4]; 50 µg, Cell lysate 2
  pAkt fold change: 3.13
[4]; 50 µg
  pAkt mean fold change: 2.62
[4]; 100 µg, Cell lysate 1
  pAkt fold change: 4.88
[4]; 100 µg, Cell lysate 2
  pAkt fold change: 6.30
[4]; 100 µg
  pAkt mean fold change: 5.59
[4]; 200 µg, Cell lysate 1
  pAkt fold change: 6.55
[4]; 200 µg, Cell lysate 2
  pAkt fold change: 7.78
[4]; 200 µg
  pAkt mean fold change: 7.17
[4]; 300 µg, Cell lysate 1
  pAkt fold change: 6.53
[4]; 300 µg, Cell lysate 2
  pAkt fold change: 5.20
[4]; 300 µg
  pAkt mean fold change: 5.87
[5]; 50 µg, Cell lysate 1
  pErk fold change: 4.72
[5]; 50 µg, Cell lysate 2
  pErk fold change: 5.16
[5]; 50 µg
  pErk mean fold change: 4.94
[5]; 100 µg, Cell lysate 1
  pErk fold change: 7.88
[5]; 100 µg, Cell lysate 2
  pErk fold change: 4.30
[5]; 100 µg
  pErk mean fold change: 6.09
[5]; 200 µg, Cell lysate 1
  pErk fold change: 7.25
[5]; 200 µg, Cell lysate 2
  pErk fold change: 5.27
[5]; 200 µg
  pErk mean fold change: 6.26
[5]; 300 µg, Cell lysate 1
  pErk fold change: 7.62
[5]; 300 µg, Cell lysate 2
  pErk fold change: 5.84
[5]; 300 µg
  pErk mean fold change: 6.73
[6]; 50 µg, Cell lysate 1
  pcRaf fold change: 2.67
[6]; 50 µg, Cell lysate 2
  pcRaf fold change: 1.69
[6]; 50 µg
  pcRaf mean fold change: 2.18
[6]; 100 µg, Cell lysate 1
  pcRaf fold change: 2.60
[6]; 100 µg, Cell lysate 2
  pcRaf fold change: 2.10
[6]; 100 µg
  pcRaf mean fold change: 2.35
[6]; 200 µg, Cell lysate 1
  pcRaf fold change: 2.93
[6]; 200 µg, Cell lysate 2
  pcRaf fold change: 3.37
[6]; 200 µg
  pcRaf mean fold change: 3.15
[6]; 300 µg, Cell lysate 1
  pcRaf fold change: 3.66
[6]; 300 µg, Cell lysate 2
  pcRaf fold change: 3.19
[6]; 300 µg
  pcRaf mean fold change: 3.43
[7]; 50 µg, Cell lysate 1
  pS6 fold change: 4.20
[7]; 50 µg, Cell lysate 2
  pS6 fold change: 2.51
[7]; 50 µg
  pS6 mean fold change: 3.36
[7]; 100 µg, Cell lysate 1
  pS6 fold change: 2.82
[7]; 100 µg, Cell lysate 2
  pS6 fold change: 2.81
[7]; 100 µg
  pS6 mean fold change: 2.82
[7]; 200 µg, Cell lysate 1
  pS6 fold change: 3.15
[7]; 200 µg, Cell lysate 2
  pS6 fold change: 3.28
[7]; 200 µg
  pS6 mean fold change: 3.22
[7]; 300 µg, Cell lysate 1
  pS6 fold change: 3.41
[7]; 300 µg, Cell lysate 2
  pS6 fold change: 3.61
[7]; 300 µg
  pS6 mean fold change: 3.51
[8]
  SOS-catalysed nucleotide exchange: no SOS-catalysed nucleotide exchange was observed
